pIC50: −log10 of the molar value.
Molecular target: Macrophage colony-stimulating factor 1 receptor (Homo sapiens, UniProt P07333)
Assay: Fluorescence Polarization Competition Assay
Details: pH 7.5
Excerpt: An autophosphorylation, fluroescence polarization competition immunoassay was used to determine the potency for c-fms inhibition.

Macrophage colony-stimulating factor 1 receptor, sequence (P07333 whole entry): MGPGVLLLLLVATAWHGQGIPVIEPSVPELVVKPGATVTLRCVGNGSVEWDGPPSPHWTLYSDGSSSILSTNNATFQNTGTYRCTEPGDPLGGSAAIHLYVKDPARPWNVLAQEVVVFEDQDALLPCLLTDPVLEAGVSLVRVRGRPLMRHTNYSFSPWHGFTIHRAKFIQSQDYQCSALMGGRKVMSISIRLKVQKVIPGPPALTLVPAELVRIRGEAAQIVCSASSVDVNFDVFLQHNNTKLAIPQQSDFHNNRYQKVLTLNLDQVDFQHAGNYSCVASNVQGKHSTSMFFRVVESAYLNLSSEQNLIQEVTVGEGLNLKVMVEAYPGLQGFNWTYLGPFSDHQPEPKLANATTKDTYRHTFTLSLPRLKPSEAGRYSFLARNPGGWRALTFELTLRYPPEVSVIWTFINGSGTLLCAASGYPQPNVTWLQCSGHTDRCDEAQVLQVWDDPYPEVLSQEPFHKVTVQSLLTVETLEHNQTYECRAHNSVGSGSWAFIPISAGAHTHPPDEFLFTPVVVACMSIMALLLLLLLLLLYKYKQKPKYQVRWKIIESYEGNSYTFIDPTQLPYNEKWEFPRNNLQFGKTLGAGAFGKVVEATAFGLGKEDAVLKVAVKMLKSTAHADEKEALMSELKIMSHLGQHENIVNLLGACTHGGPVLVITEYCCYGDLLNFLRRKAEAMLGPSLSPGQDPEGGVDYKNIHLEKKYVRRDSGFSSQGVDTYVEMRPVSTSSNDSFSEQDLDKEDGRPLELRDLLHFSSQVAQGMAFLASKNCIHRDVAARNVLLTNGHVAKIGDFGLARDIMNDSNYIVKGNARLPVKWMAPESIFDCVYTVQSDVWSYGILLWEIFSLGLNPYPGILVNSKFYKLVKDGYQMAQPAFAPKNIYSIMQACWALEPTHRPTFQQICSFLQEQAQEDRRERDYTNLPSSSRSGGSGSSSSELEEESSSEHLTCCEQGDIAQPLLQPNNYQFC

Compound `CC1(C)CC=C(c2cc([C@]3(O)C[C@@]4(CO)C=C[C@@](CO)(C3)O4)ccc2NC(=O)c2ncc(C#N)[nH]2)CC1` [US8497376, 2] has a pIC50 of 9.37.

Reference: BindingDB's records for patent US8497376 (Janssen Pharmaceutica, 2013)
